Data: patent publication US12628829B2, “Compositions comprising recombianant Bacillus cells and an insecticide” (BASF CORPORATION, priority 2014, dated 2026)

System: Maize
Experiment: Plant growth promotion, maize whole plant biomass after soil drench
Format: in vivo
Protocol: For instance, the formula and analysis can be applied to an evaluation of plant growth promotion. Such an assay is evaluated several days after the applications to plants. 100% means plant weight which corresponds to that of the untreated control plant. Efficacy means in this case the additional % of plant weight in comparison to that of the untreated control.
Experiments were conducted to analyze efficacy of a combination of flupyradifurone and a fermentation product of recombinant Bacillus thuringiensis cells expressing phospholipase C (“BEPC”). Maize seeds were grown in sterile mixture of synthetic media and sand in small three-inch square pots on light racks in a plant growth room at 25-28° C. and 50% humidity for about 14 days. Two seeds were planted in each pot. At planting, the growing media in each pot was drenched with the treatments described below. After 14 days, plants were measured for whole plant biomass. In the tables below, UTC refers to untreated control. “Calculated” refers to the expected effect calculated using the above-described Colby equation and “Efficacy” refers to the actual effect observed.
The SIVANTO® product, which contains flupyradifurone as its active ingredient (17.09% flupyradifurone), was diluted in 50 mL water and the diluted solution was used to drench the growing media. The application rate shown below refers to the amount of active ingredient (i.e., flupyradifurone) applied to the growing media.
A recombinant Bacillus cereus family member (Bacillus thuringiensis BT013A) expressing phospholipase C on its exosporium (BEPC) was generated as follows. […]
To obtain whole broth cultures of BEPC, 15 ml conicals containing brain heart infusion media (BHI) were inoculated with BEPC and grown for 7-8 hours at around 30° C. at a shaker setting of 300 rpm. […] After approximately 2 days of incubation, when sporulation was at least 95% completed, the culture broth was harvested and colony forming units calculated. […]

## O=C1C=C(N(Cc2ccc(Cl)nc2)CC(F)F)CO1 [Flupyradifurone, flupyradifurone]
Actual effect observed: additional % of plant weight versus UTC, 14 days
  Efficacy %: 3%
Growing media drenched at planting, measured after 14 days, flupyradifurone 1.36 mg/pot, BEPC 7 × 10^8 CFU/pot
  Whole Plant Biomass: 3.50 g
Plant weight relative to UTC = 100, drench at planting, 14 days
  Found %: 103%
